Measured values from ChEMBL document CHEMBL4819004, “Discovery of selective CDK9 degraders with enhancing antiproliferative activity through PROTAC conversion” (Eur J Med Chem, 2021).
Activity calls are given as the source filed them. The calls are words filed in the database; no cut-off is given here.

Key:
[1] = biological target: T1, Protein cereblon/Cyclin-dependent kinase 9 (Homo sapiens, UniProt P50750+Q96SW2); assay: Protac activity at CRBN/CDK9 in human MV4-11 cells assessed as induction of CDK9 degradation by measuring MCL-1 protein expression level at 250 nM measured after 12 hrs by western blot analysis; format: cell-based
Target sequence in this assay (P50750 whole entry, looked up): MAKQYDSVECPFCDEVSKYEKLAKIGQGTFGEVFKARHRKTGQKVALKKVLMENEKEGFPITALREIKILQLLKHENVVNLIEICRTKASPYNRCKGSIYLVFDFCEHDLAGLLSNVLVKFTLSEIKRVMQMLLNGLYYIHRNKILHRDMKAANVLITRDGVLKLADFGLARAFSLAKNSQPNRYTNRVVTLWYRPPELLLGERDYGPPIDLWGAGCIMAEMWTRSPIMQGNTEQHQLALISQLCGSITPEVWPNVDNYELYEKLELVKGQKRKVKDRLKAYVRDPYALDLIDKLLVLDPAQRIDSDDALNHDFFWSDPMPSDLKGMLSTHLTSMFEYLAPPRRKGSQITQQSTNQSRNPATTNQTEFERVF
Target sequence in this assay (Q96SW2 whole entry, looked up): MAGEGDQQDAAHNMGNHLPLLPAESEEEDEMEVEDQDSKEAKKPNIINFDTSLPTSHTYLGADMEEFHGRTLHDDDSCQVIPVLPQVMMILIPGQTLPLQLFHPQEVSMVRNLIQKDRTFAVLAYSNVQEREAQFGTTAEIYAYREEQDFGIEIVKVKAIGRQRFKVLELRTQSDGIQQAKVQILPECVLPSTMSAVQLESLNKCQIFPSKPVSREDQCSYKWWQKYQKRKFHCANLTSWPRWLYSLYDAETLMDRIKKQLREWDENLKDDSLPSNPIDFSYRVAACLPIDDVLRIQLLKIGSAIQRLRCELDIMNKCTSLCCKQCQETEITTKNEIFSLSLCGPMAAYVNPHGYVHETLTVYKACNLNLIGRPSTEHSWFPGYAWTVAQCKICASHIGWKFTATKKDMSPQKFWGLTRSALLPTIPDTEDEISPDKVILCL

MV4-11 [2] = assay: Induction of apoptosis in human MV4-11 cells assessed as early apoptotic cells at 1 nM after 6 hrs by AnnexinV-FITC/propidium iodide staining based flow cytometry (reference value: 5.36 %); format: functional
[3] = biological target: Cyclin-dependent kinase 9 (Homo sapiens) (UniProt P50750); assay: Inhibition of human full length recombinant CDK9 expressed in bacterial expression system assessed as remaining enzyme activity at 1 uM by competitive binding Kinome scan analysis
Cyclin-dependent kinase 9 (Homo sapiens), sequence (P50750 whole entry): as the sequence (P50750 whole entry, looked up) above

[4] = biological target: Protein cereblon/Cyclin-dependent kinase 6 (Homo sapiens) (UniProt Q00534+Q96SW2); assay: PROTAC activity at CRBN/CDK6 in human MV4-11 cells assessed as induction of CDK6 degradation at 31.25 to 500 nM measured after 3 hrs by western blot analysis; format: cell-based; details: dose 31.25-500 nM
Protein cereblon/Cyclin-dependent kinase 6 (Homo sapiens), sequence (Q00534 whole entry, looked up): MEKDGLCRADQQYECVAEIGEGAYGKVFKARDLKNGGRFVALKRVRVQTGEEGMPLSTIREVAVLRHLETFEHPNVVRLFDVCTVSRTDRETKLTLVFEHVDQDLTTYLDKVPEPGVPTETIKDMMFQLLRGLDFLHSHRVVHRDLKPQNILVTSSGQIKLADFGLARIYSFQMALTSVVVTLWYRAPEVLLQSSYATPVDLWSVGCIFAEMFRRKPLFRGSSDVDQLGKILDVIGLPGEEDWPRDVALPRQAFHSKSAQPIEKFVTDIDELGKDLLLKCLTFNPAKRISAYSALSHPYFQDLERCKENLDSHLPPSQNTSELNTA
Protein cereblon/Cyclin-dependent kinase 6 (Homo sapiens), sequence (Q96SW2 whole entry, looked up): as the sequence (Q96SW2 whole entry, looked up) above

[5] = biological target: Protein cereblon/Cyclin-dependent kinase 7 (Homo sapiens) (UniProt P50613+Q96SW2); assay: PROTAC activity at CRBN/CDK7 in human MV4-11 cells assessed as induction of CDK7 degradation at 31.25 to 500 nM measured after 3 hrs by western blot analysis; format: cell-based; details: dose 31.25-500 nM
Protein cereblon/Cyclin-dependent kinase 7 (Homo sapiens), sequence (P50613 whole entry, looked up): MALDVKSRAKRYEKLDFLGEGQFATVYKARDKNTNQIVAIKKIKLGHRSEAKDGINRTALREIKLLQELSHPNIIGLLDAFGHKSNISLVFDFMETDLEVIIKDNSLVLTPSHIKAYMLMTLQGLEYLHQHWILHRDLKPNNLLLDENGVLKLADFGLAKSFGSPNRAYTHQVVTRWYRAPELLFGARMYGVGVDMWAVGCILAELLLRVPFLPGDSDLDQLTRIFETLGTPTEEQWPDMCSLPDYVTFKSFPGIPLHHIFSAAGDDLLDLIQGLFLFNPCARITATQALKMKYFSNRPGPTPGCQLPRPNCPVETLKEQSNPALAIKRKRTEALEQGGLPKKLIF
Protein cereblon/Cyclin-dependent kinase 7 (Homo sapiens), sequence (Q96SW2 whole entry, looked up): as the sequence (Q96SW2 whole entry, looked up) above

[6] = biological target: T1, Protein cereblon/Cyclin-dependent kinase 9; assay: Protac activity at CRBN/CDK9 in human MV4-11 cells assessed as induction of CDK9 degradation incubated for 6 hrs by Western blot assay; format: cell-based
Target sequence in this assay (P50750 whole entry): as the sequence (P50750 whole entry, looked up) above
Target sequence in this assay (Q96SW2 whole entry): as the sequence (Q96SW2 whole entry, looked up) above

MV4-11 [7] = assay: Potency index, ratio of BAY-1143572 IC50 to test compound IC50 for antiproliferative activity against human MV4-11 cells incubated for 72 hrs by MTT assay; format: functional
HCT-116 = assay: Antiproliferative activity against human HCT-116 cells incubated for 72 hrs by MTT assay; format: functional, cell-based; details: HCT-116, 72 h
[8] = biological target: Protein cereblon/Cyclin-dependent kinase 2 (Homo sapiens) (UniProt P24941+Q96SW2); assay: PROTAC activity at CRBN/CDK2 in human MV4-11 cells assessed as induction of CDK2 degradation at 31.25 to 500 nM measured after 3 hrs by western blot analysis; format: cell-based; details: dose 31.25-500 nM
[9] = biological target: Protein cereblon/Cyclin-dependent kinase 1 (Homo sapiens) (UniProt P06493+Q96SW2); assay: PROTAC activity at CRBN/CDK1 in human MV4-11 cells assessed as induction of CDK1 degradation at 31.25 to 500 nM measured after 3 hrs by western blot analysis; format: cell-based; details: dose 31.25-500 nM
Protein cereblon/Cyclin-dependent kinase 1 (Homo sapiens), sequence (P06493 whole entry, looked up): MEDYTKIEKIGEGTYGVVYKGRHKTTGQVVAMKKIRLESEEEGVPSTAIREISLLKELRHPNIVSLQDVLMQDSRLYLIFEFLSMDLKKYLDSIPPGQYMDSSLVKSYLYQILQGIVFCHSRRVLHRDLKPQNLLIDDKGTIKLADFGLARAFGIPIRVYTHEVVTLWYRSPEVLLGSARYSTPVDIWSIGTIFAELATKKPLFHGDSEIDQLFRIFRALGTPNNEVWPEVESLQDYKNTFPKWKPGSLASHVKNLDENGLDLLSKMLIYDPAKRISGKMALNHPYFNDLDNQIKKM
Protein cereblon/Cyclin-dependent kinase 1 (Homo sapiens), sequence (Q96SW2 whole entry, looked up): as the sequence (Q96SW2 whole entry, looked up) above

[10] = biological target: T1, Protein cereblon/Cyclin-dependent kinase 9; assay: Protac activity at CRBN/CDK9 in human MV4-11 cells assessed as induction of CDK9 degradation by measuring downregulation of MCL-1 protein expression level at 250 nM by western blot analysis; format: cell-based; details: time 1-12 hrs, TDE = time-dependent effect
Target sequence in this assay (P50750 whole entry, looked up): as the sequence (P50750 whole entry, looked up) above
Target sequence in this assay (Q96SW2 whole entry, looked up): as the sequence (Q96SW2 whole entry, looked up) above

[11] = biological target: T1, Protein cereblon/Cyclin-dependent kinase 9; assay: PROTAC activity at CRBN/CDK9 in human MV4-11 cells assessed as reduction in CDK9 protein expression at 100 nM measured after 3 hrs by whole proteome mass spectrometry; format: cell-based
Target sequence in this assay (P50750 whole entry, looked up): as the sequence (P50750 whole entry, looked up) above
Target sequence in this assay (Q96SW2 whole entry, looked up): as the sequence (Q96SW2 whole entry, looked up) above

MV4-11 [12] = assay: Induction of apoptosis in human MV4-11 cells assessed as viable cells at 500 nM after 6 hrs by AnnexinV-FITC/propidium iodide staining based flow cytometry (reference value: 90.1 %); format: functional; details: read-out: Activity
MV4-11 [13] = assay: Induction of apoptosis in human MV4-11 cells assessed as late apoptotic cells at 1000 nM after 6 hrs by AnnexinV-FITC/propidium iodide staining based flow cytometry (reference value: 4.29%); format: functional
MV4-11 [14] = assay: Induction of apoptosis in human MV4-11 cells assessed as necrotic cells at 1000 nM after 6 hrs by AnnexinV-FITC/propidium iodide staining based flow cytometry (reference value: 0.16 %); format: functional
MV4-11 [15] = assay: Induction of apoptosis in human MV4-11 cells assessed as late apoptotic cells at 30 nM after 6 hrs by AnnexinV-FITC/propidium iodide staining based flow cytometry (reference value: 4.29%); format: functional
MCF7 = assay: Antiproliferative activity against human MCF7 cells incubated for 72 hrs by MTT assay; format: functional, cell-based; details: MCF7, 72 h
[16] = biological target: T1, Protein cereblon/Cyclin-dependent kinase 9; assay: Reversible PROTAC activity at CRBN/CDK9 in human MV4-11 cells assessed as CDK9 degradation at 250 nM incubated for 6 hrs followed by drug wash-out for 12 hrs by western blot analysis; format: cell-based
Target sequence in this assay (P50750 whole entry, looked up): as the sequence (P50750 whole entry, looked up) above
Target sequence in this assay (Q96SW2 whole entry, looked up): as the sequence (Q96SW2 whole entry, looked up) above

[17] = biological target: T1, Protein cereblon/Cyclin-dependent kinase 9; assay: Protac activity at CRBN/CDK9 in human MV4-11 cells assessed as induction of CDK9 degradation at 250 nM pretreated for 2 hrs with E3 ligase cereblon ligand, pomalidomide followed by incubation with compound for 6 hrs by western blot analysis; format: cell-based
Target sequence in this assay (P50750 whole entry, looked up): as the sequence (P50750 whole entry, looked up) above
Target sequence in this assay (Q96SW2 whole entry, looked up): as the sequence (Q96SW2 whole entry, looked up) above

A549 = assay: Antiproliferative activity against human A549 cells incubated for 72 hrs by MTT assay; format: functional, cell-based; details: A549, 72 h
[18] = biological target: T1, Protein cereblon/Cyclin-dependent kinase 9; assay: Protac activity at CRBN/CDK9 in human MV4-11 cells assessed as induction of CDK9 degradation at 250 nM pretreated for 2 hrs with proteasome inhibitor, MG132 followed by incubation with compound for 6 hrs by western blot analysis; format: cell-based
Target sequence in this assay (P50750 whole entry, looked up): as the sequence (P50750 whole entry, looked up) above
Target sequence in this assay (Q96SW2 whole entry, looked up): as the sequence (Q96SW2 whole entry, looked up) above

MV4-11 [19] = assay: Induction of apoptosis in human MV4-11 cells assessed as early apoptotic cells at 100 nM after 6 hrs by AnnexinV-FITC/propidium iodide staining based flow cytometry (reference value: 5.36 %); format: functional
CDK9/cyclin T1 = CDK9/cyclin T1 (Homo sapiens, UniProt P50750); assay: Inhibition of CDK9/cyclin T (unknown origin) using YSPTSPSYSPTSPSYSPTSPKKK or histone H1 as substrate incubated for 2 hrs in presence of [gamma-33P]ATP by radioactive filter binding assay; format: protein-complex assay
CDK9/cyclin T1, sequence (O60563 whole entry): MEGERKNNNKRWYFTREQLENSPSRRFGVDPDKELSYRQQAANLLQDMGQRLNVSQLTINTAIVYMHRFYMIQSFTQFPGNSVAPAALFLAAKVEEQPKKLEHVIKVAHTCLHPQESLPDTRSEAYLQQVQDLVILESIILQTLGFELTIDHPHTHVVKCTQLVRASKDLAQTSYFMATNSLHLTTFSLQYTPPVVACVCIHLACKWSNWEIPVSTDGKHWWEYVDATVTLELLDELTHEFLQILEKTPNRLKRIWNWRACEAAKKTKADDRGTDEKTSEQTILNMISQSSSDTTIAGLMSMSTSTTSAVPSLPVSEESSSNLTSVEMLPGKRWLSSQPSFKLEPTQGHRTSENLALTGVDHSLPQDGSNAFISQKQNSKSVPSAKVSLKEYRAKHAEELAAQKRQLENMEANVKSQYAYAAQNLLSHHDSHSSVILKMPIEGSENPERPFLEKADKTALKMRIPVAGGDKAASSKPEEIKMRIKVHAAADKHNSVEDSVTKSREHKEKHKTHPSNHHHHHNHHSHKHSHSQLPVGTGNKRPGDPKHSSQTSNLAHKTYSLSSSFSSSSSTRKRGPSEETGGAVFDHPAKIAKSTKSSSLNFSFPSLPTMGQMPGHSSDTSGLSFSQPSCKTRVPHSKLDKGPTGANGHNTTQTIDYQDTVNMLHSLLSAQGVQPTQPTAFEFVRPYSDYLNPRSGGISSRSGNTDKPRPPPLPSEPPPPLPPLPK
CDK9/cyclin T1, sequence (P50750 whole entry): as the sequence (P50750 whole entry, looked up) above

MV4-11 [20] = assay: Induction of apoptosis in human MV4-11 cells assessed as total apoptotic cells at 250 nM after 6 hrs by AnnexinV-FITC/propidium iodide staining based flow cytometry (reference value: 9.75 %); format: functional
[21] = biological target: T1, Protein cereblon/Cyclin-dependent kinase 9; assay: Protac activity at CRBN/CDK9 in human MV4-11 cells assessed as induction of CDK9 degradation by measuring downregulation of CDK9 expression level at 250 nM by western blot analysis; format: cell-based; details: time 1-12 hrs, TDE = time-dependent effect
MV4-11 [22] = assay: Induction of apoptosis in human MV4-11 cells assessed as viable cells at 30 nM after 6 hrs by AnnexinV-FITC/propidium iodide staining based flow cytometry (reference value: 90.1 %); format: functional; details: read-out: Activity
MV4-11 [23] = assay: Induction of apoptosis in human MV4-11 cells assessed as necrotic cells at 500 nM after 6 hrs by AnnexinV-FITC/propidium iodide staining based flow cytometry (reference value: 0.16 %); format: functional
MV4-11 [24] = assay: Induction of apoptosis in human MV4-11 cells assessed as total apoptotic cells at 1 nM after 6 hrs by AnnexinV-FITC/propidium iodide staining based flow cytometry (reference value: 9.75 %); format: functional
MV4-11 [25] = assay: Induction of apoptosis in human MV4-11 cells assessed as viable cells at 250 nM after 6 hrs by AnnexinV-FITC/propidium iodide staining based flow cytometry (reference value: 90.1 %); format: functional; details: read-out: Activity
MV4-11 [26] = assay: Induction of apoptosis in human MV4-11 cells assessed as late apoptotic cells at 250 nM after 6 hrs by AnnexinV-FITC/propidium iodide staining based flow cytometry (reference value: 4.29%); format: functional
MV4-11 [27] = assay: Induction of apoptosis in human MV4-11 cells assessed as necrotic cells at 1 nM after 6 hrs by AnnexinV-FITC/propidium iodide staining based flow cytometry (reference value: 0.16 %); format: functional

## COc1cc(F)ccc1-c1ncnc(Nc2cccc(CS(C)(=O)=NC(=O)CCCCCCCC(=O)NCCNc3cccc4c3C(=O)N(C3CCC(=O)NC3=O)C4=O)c2)n1 (stereo unspecified)
[1]
  Activity: 0%
MV4-11 [2]
  Activity: 6.13%
[3]
  Activity: < 10%
[4]
  Activity: inactive
[5]
  Activity: inactive
[6]
  DC50: 7.62 nM
MV4-11 [7]
  Ratio IC50: 20
HCT-116
  IC50: 3080 nM
[8]
  Activity: inactive
[9]
  Activity: inactive
[10]
  Activity: Tde
[11]
  Activity: Active
MV4-11 [12]
  viability at 0.5 µM: 31.3%
MV4-11 [13]
  Activity: 16%
MV4-11 [14]
  Activity: 0.4%
MV4-11 [15]
  Activity: 14.8%
MCF7
  IC50: 3120 nM
[16]
  Activity: Active
[17]
  Activity: inactive
A549
  IC50: 1220 nM
[18]
  Activity: inactive
MV4-11 [19]
  Activity: 11.5%
CDK9/cyclin T1
  IC50: 8.68 nM
MV4-11 [20]
  Activity: 59.4%
[21]
  Activity: Tde
MV4-11 [22]
  viability at 0.03 µM: 77.6%
MV4-11 [23]
  Activity: 0.72%
MV4-11 [24]
  Activity: 22.1%
MV4-11 [25]
  viability at 0.25 µM: 40.1%
MV4-11 [26]
  Activity: 14.3%
MV4-11 [27]
  Activity: 0.77%
